Test results as given in patent US20230279025A1, “KRAS G12D INHIBITORS” (Mirati Therapeutics, Inc., priority 2020, published 2023).

target: KRas G12D (Homo sapiens (Human), UniProt P01116, G12D); assay: KRas G12D Binding Assay (TR-FRET displacement of Cy5 labelled tracer); conditions: GDP-loaded KRAS G12D (amino acids 1:169), 60 minute incubation at 22° C.
Experimental: After a 60 minute incubation at 22° C., the reaction was measured using a PerkinElmer EnVision multimode plate reader via TR-FRET dual wavelength detection, and the percent of control (POC) calculated using a ratiometric emission factor. […] The POC values were fit to a 4-parameter logistic curve and the IC50 value was determined as the concentration where the curve crosses 50 POC.
ND stands for “not determined.”

KRas G12D, sequence (P01116 other isoform, or with tags, fused parts or gaps G12D): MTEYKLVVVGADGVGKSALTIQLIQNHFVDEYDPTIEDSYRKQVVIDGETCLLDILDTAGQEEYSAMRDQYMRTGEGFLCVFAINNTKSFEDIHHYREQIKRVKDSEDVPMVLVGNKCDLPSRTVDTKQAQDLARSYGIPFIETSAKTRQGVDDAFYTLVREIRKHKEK

SMILES | IC50 [nM]
CC1(C)CN2CCCC2(COc2nc(N3CC4CCC(C3)N4)c3cnc(-c4cccc5cccc(Cl)c45)c(F)c3n2)C1 [Example 228, 4-((1R,5S)-3,8-diazabicyclo[3.2.1]octan-3-yl)-7-(8-chloronaphthalen-1-yl)-2-((2,2-dimethyltetrahydro-1H-pyrrolizin-7a(5H)-yl)methoxy)-8-fluoropyrido[4,3-d]pyrimidine bis-2,2,2-trifluoroacetate] | 87.7
CC(C)c1ncccc1-c1ncc2c(N3C[C@H]4CC[C@@H](C3)N4)nc(OCC34CCCN3CCC4)nc2c1F [Example 307, 4-((1R,5S)-3,8-diazabicyclo[3.2.1]octan-3-yl)-8-fluoro-2-((hexahydro-1H-pyrrolizin-7a-yl)methoxy)-7-(2-isopropylpyridin-3-yl)pyrido[4,3-d]pyrimidine] | 3160
Oc1ccc(OC(F)(F)F)c(-c2ncc3c(N4C[C@H]5CC[C@@H](C4)N5)nc(OCC45CCCN4CCC5)nc3c2F)c1 [Example 341, 3-(4-((1R,5S)-3,8-diazabicyclo[3.2.1]octan-3-yl)-8-fluoro-2-((tetrahydro-1H-pyrrolizin-7a(5H)-yl)methoxy)pyrido[4,3-d]pyrimidin-7-yl)-4-(trifluoromethoxy)phenol] | 0.7
Oc1cc(-c2ncc3c(N4CC5C[C@@H](n6cncn6)C(C4)N5)nc(OC[C@@]45CCCN4C[C@H](F)C5)nc3c2F)c2ccccc2c1 (mixture of isomers) [Example 333, 4-(4-((6R)-6-(1H-1,2,4-triazol-1-yl)-3,8-diazabicyclo[3.2.1]octan-3-yl)-8-fluoro-2-((2-fluorotetrahydro-1H-pyrrolizin-7a(5H)-yl)methoxy)pyrido[4,3-d]pyrimidin-7-yl)naphthalen-2-ol (racemic, trans)] | 450
Cn1cnc2ccc(Oc3nc(N4C[C@H]5CC[C@@H](C4)N5)c4cnc(-c5cccc6cccc(Cl)c56)c(F)c4n3)cc21 [Example 148, 4-((1R,5S)-3,8-diazabicyclo[3.2.1]octan-3-yl)-7-(8-chloronaphthalen-1-yl)-8-fluoro-2-((1-methyl-1H-benzo[d]imidazol-6-yl)oxy)pyrido[4,3-d]pyrimidine] | 5180
Fc1c(-c2c3ccccc3cc3[nH]ncc23)ncc2c(N3C[C@H]4CC[C@@H](C3)N4)nc(OCC34CCCN3CCC4)nc12 [Example 257, 4-(4-((1R,5S)-3,8-diazabicyclo[3.2.1]octan-3-yl)-8-fluoro-2-((hexahydro-1H-pyrrolizin-7a-yl)methoxy)pyrido[4,3-d]pyrimidin-7-yl)-1H-benzo[f]indazole] | 5.1
CCn1ccc2cccc(-c3ncc4c(N5C[C@H]6CC[C@@H](C5)N6)nc(OCC56CCCN5CCC6)nc4c3F)c21 [Example 427, 4-((1R,5S)-3,8-diazabicyclo[3.2.1]octan-3-yl)-7-(1-ethyl-1H-indol-7-yl)-8-fluoro-2-((hexahydro-1H-pyrrolizin-7a-yl)methoxy)pyrido[4,3-d]pyrimidine] | 35.3
Cc1cccc(-c2ncc3c(N4C[C@H]5CC[C@@H](C4)N5)nc(OCC45CCCN4CCC5)nc3c2F)c1C [Example 275, 4-((1R,5S)-3,8-diazabicyclo[3.2.1]octan-3-yl)-7-(2,3-dimethylphenyl)-8-fluoro-2-((hexahydro-1H-pyrrolizin-7a-yl)methoxy)pyrido[4,3-d]pyrimidine] | 53.8
Cn1ccc2cccc(-c3ncc4c(N5C[C@H]6CC[C@@H](C5)N6)nc(OCC56CCCN5CCC6)nc4c3F)c21 [Example 446, 4-((1R,5S)-3,8-diazabicyclo[3.2.1]octan-3-yl)-8-fluoro-7-(1-methyl-1H-indol-7-yl)-2-((tetrahydro-1H-pyrrolizin-7a(5H)-yl)methoxy)pyrido[4,3-d]pyrimidine] | 357
Fc1c(-c2cccc3c2C(C2CC2)CC3)ncc2c(N3CC4CCC(C3)N4)nc(OC[C@@]34CCCN3C[C@H](F)C4)nc12 (stereo partly drawn) [Example 437, 4-(3,8-diazabicyclo[3.2.1]octan-3-yl)-7-(3-cyclopropyl-2,3-dihydro-1H-inden-4-yl)-8-fluoro-2-(((2R,7aS)-2-fluorotetrahydro-1H-pyrrolizin-7a(5H)-yl)methoxy)pyrido[4,3-d]pyrimidine] | 234
O[C@@H]1C[C@@H]2CN(c3nc(OCCn4ccnc4CF)nc4c(F)c(-c5cccc6cccc(Cl)c56)ncc34)C[C@H]1N2 [Example 168, (1R,5R,6R)-3-(7-(8-chloronaphthalen-1-yl)-8-fluoro-2-(2-(2-(fluoromethyl)-1H-imidazol-1-yl)ethoxy)pyrido[4,3-d]pyrimidin-4-yl)-3,8-diazabicyclo[3.2.1]octan-6-ol] | 583
Fc1c(-c2cccc3cccc(Cl)c23)ncc2c(N3CC4CCC(C3)N4)nc(OC[C@@H]3CC(F)(F)CN3)nc12 [Example 352, 4-((1R,5S)-3,8-diazabicyclo[3.2.1]octan-3-yl)-7-(8-chloronaphthalen-1-yl)-2-(((S)-4,4-difluoropyrrolidin-2-yl)methoxy)-8-fluoropyrido[4,3-d]pyrimidine bis(2,2,2-trifluoroacetate)] | 845
CC(C)(F)c1ccccc1-c1ncc2c(N3CC4CCC(C3)N4)nc(OC[C@@]34CCCN3C[C@H](F)C4)nc2c1F (stereo in doubt) [Example 407, 4-((1R,5S)-3,8-diazabicyclo[3.2.1]octan-3-yl)-8-fluoro-7-(2-(2-fluoropropan-2-yl)phenyl)-2-((2-fluorotetrahydro-1H-pyrrolizin-7a(5H)-yl)methoxy)pyrido[4,3-d]pyrimidine] | 560
C#Cc1c(F)ccc2cccc(-c3ncc4c(N5C[C@H]6CC[C@@H](C5)N6)nc(OCC56CCCN5CCC6)nc4c3F)c12 [Example 189, 4-((1R,5S)-3,8-diazabicyclo[3.2.1]octan-3-yl)-7-(8-ethynyl-7-fluoronaphthalen-1-yl)-8-fluoro-2-((tetrahydro-1H-pyrrolizin-7a(5H)-yl)methoxy)pyrido[4,3-d]pyrimidine] | 0.5
Oc1cc(Cl)c(C(F)(F)F)c(-c2ncc3c(N4C[C@H]5CC[C@@H](C4)N5)nc(OC[C@@]45CCCN4C[C@H](F)C5)nc3c2F)c1 [Example 284, 3-(4-((1R,5S)-3,8-diazabicyclo[3.2.1]octan-3-yl)-8-fluoro-2-(((2R,7aS)-2-fluorohexahydro-1H-pyrrolizin-7a-yl)methoxy)pyrido[4,3-d]pyrimidin-7-yl)-5-chloro-4-(trifluoromethyl)phenol] | 0.1
Fc1c(-c2ccccc2Cl)ncc2c(N3CC4CCC(C3)N4)nc(OC[C@@]34CCCN3C[C@H](F)C4)nc12 (stereo in doubt) [Example 414, 4-((1R,5S)-3,8-diazabicyclo[3.2.1]octan-3-yl)-7-(2-chlorophenyl)-8-fluoro-2-((2-fluorotetrahydro-1H-pyrrolizin-7a(5H)-yl)methoxy)pyrido[4,3-d]pyrimidine] | 873
CNc1c(F)cccc1-c1ncc2c(N3C[C@H]4CC[C@@H](C3)N4)nc(OCC34CCCN3CCC4)nc2c1F [Example 268, 2-(4-((1R,5S)-3,8-diazabicyclo[3.2.1]octan-3-yl)-8-fluoro-2-((hexahydro-1H-pyrrolizin-7a-yl)methoxy)pyrido[4,3-d]pyrimidin-7-yl)-6-fluoro-N-methylaniline] | 1550
Nc1nc2c(-c3ncc4c(N5C[C@H]6CC[C@@H](C5)N6)nc(OCC56CCCN5CCC6)nc4c3F)cccc2s1 [Example 453, 4-(4-((1R,5S)-3,8-diazabicyclo[3.2.1]octan-3-yl)-8-fluoro-2-((hexahydro-1H-pyrrolizin-7a-yl)methoxy)pyrido[4,3-d]pyrimidin-7-yl)benzo[d]thiazol-2-amine] | 27
